# Measurements from ChEMBL document CHEMBL1201862, “PubChem BioAssay data set” (2004).
# Values joined by “and” are separate entries in the source; they are usually repeats but may differ in a detail not shown here. Equal entries are not always repeated.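 Cultured in 96-well plates, cells were exposed to test compound for 48 hours across five concentrations. GI50: concentration for 50% inhibition of growth.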 Active and inactive are the calls of the source. No stated cut-off is given here; in the data, active = GI50 up to about 1.1 µM and inactive = higher.
# Assays:
# Assay in all cases: DTP human tumour cell line panel, 48 h
# [1] = test system: SK-MEL-28
# [2] = test system: SF-539
# [3] = test system: HCT-15
# [4] = test system: NCI/ADR-RES
# [5] = test system: MOLT-4
# [6] = test system: SK-MEL-2
# [7] = test system: COLO 205
# [8] = test system: OVCAR-5
# [9] = test system: SN12C
# [10] = test system: OVCAR-4
# [11] = test system: UO-31
# [12] = test system: MCF7
# [13] = test system: HCC 2998
# [14] = test system: RPMI-8226
# [15] = test system: LOX IMVI
# [16] = test system: T47D
# [17] = test system: UACC-257
# [18] = test system: HT-29
# [19] = test system: CAKI-1
# [20] = test system: DU-145
SMILES,GI50 [1],GI50 [2],GI50 [3],GI50 [4],GI50 [5],GI50 [6],GI50 [7],GI50 [8],GI50 [9],GI50 [10],GI50 [11],GI50 [12],GI50 [13],GI50 [14],GI50 [15],GI50 [16],GI50 [17],GI50 [18],GI50 [19],GI50 [20]
NC(=O)c1ncn2c(=O)n(CCCl)nnc12 [MITOZOLOMIDE],252 µM (inactive),31 µM (inactive),175 µM,168 µM (inactive),45.2 µM (inactive),249 µM (inactive),112 µM (inactive),225 µM (inactive),115 µM (inactive),187 µM (inactive),236 µM (inactive),120 µM (inactive),172 µM (inactive),229 µM (inactive),22.8 µM (inactive),214 µM (inactive),159 µM (inactive),156 µM (inactive),107 µM (inactive),123 µM (inactive)
CCCCCCc1cc2cc(-c3cn4c(n3)sc3ccccc34)c(=O)oc2cc1O,3.39 µM (inactive),> 100 µM (inactive),> 75.7 µM,> 100 µM (inactive),> 100 µM (inactive),> 100 µM (inactive),> 100 µM (inactive),> 100 µM (inactive),> 100 µM (inactive),3.98 µM (inactive),> 100 µM (inactive),> 100 µM (inactive),> 100 µM (inactive),> 100 µM (inactive),> 100 µM (inactive),> 100 µM (inactive),4.42 µM (inactive),15.4 µM (inactive),> 100 µM (inactive),> 100 µM (inactive)
Cc1ccc(C(=O)Nc2ccc(CP(=O)(O)O)cc2CP(=O)(O)O)cc1NC(=O)c1cccc(NC(=O)Nc2cccc(C(=O)Nc3cc(C(=O)Nc4ccc(CP(=O)(O)O)cc4CP(=O)(O)O)ccc3C)c2)c1,> 100 µM (inactive),> 100 µM (inactive),> 100 µM,> 100 µM (inactive),> 100 µM (inactive),> 100 µM (inactive),> 100 µM (inactive),> 100 µM (inactive),> 100 µM (inactive),> 100 µM (inactive),> 100 µM (inactive),> 100 µM (inactive),> 100 µM (inactive),> 100 µM (inactive),> 100 µM (inactive),> 100 µM (inactive),> 100 µM (inactive),> 100 µM (inactive),> 100 µM (inactive),> 100 µM (inactive)
COc1ccc2cc(C(=O)NCCCNC(=O)c3ccc4cc(OC)ccc4c3)ccc2c1,> 100 µM (inactive),3.94 µM (inactive),> 100 µM,> 61.5 µM (inactive),> 100 µM (inactive),> 75.3 µM (inactive),> 100 µM (inactive),> 100 µM (inactive),> 49.9 µM (inactive),61 µM (inactive),> 75.7 µM (inactive),> 100 µM (inactive),> 100 µM (inactive),> 100 µM (inactive),> 100 µM (inactive),> 75.7 µM (inactive),> 96.2 µM (inactive),> 100 µM (inactive),> 82.4 µM (inactive),> 100 µM (inactive)
O=C(NN1C(=O)C=CC1=O)c1ccccc1Nc1ccccc1C(=O)NN1C(=O)C=CC1=O,> 100 µM (inactive),> 100 µM (inactive),> 100 µM,> 100 µM (inactive),> 100 µM (inactive),> 100 µM (inactive),> 100 µM (inactive),> 100 µM (inactive),> 100 µM (inactive),> 100 µM (inactive),> 100 µM (inactive),> 100 µM (inactive),> 100 µM (inactive),> 100 µM (inactive),> 100 µM (inactive),> 100 µM (inactive),> 100 µM (inactive),> 100 µM (inactive),> 100 µM (inactive),> 100 µM (inactive)
Cc1ccc(NC(=O)/C(Cc2cc(=O)oc3cc(O)ccc23)=N\NC(=O)C[N+](C)(C)C)cc1C,> 100 µM (inactive),> 100 µM (inactive),> 100 µM,> 100 µM (inactive),> 100 µM (inactive),> 100 µM (inactive),> 100 µM (inactive),> 100 µM (inactive),> 100 µM (inactive),> 100 µM (inactive),> 100 µM (inactive),> 100 µM (inactive),> 100 µM (inactive),> 100 µM (inactive),> 100 µM (inactive),> 100 µM (inactive),> 100 µM (inactive),> 100 µM (inactive),> 100 µM (inactive),> 100 µM (inactive)
CCOC(=O)CC1C(O)C(=O)N(C)C1c1ccccc1 (stereo not given),> 100 µM (inactive),> 100 µM (inactive),> 100 µM,> 100 µM (inactive),> 100 µM (inactive),> 100 µM (inactive),> 100 µM (inactive),> 100 µM (inactive),> 100 µM (inactive),> 100 µM (inactive),> 100 µM (inactive),> 100 µM (inactive),> 100 µM (inactive),> 100 µM (inactive),> 100 µM (inactive),> 100 µM (inactive),> 100 µM (inactive),> 100 µM (inactive),> 100 µM (inactive),> 100 µM (inactive)
O=C1N/C(=N/N=C\C(O)C(O)C(O)C(O)CO)N/C1=C/c1ccc(Cl)cc1 (stereo not given),> 100 µM (inactive),> 100 µM (inactive),76 µM and 50.6 µM,> 100 µM (inactive),46 µM (inactive) and > 10 µM (inactive),> 100 µM (inactive),> 100 µM (inactive),> 100 µM (inactive),> 100 µM (inactive),37.2 µM (inactive) and 17.7 µM (inactive),> 100 µM (inactive),> 100 µM (inactive),95.7 µM (inactive) and 99.3 µM (inactive),> 100 µM (inactive),> 100 µM (inactive),49.7 µM (inactive) and 36.6 µM (inactive),> 100 µM (inactive),> 100 µM (inactive),> 100 µM (inactive),> 100 µM (inactive)
